Test results taken from patent US11225507B2, “Conformation switchable antimicrobial peptides and methods of using the same” (priority 2017, dated 2022).

How the values were obtained:
H. pylori SS1 [1] = assay: H. pylori killing kinetics at various pHs (CFU counting, 1 h); type: cell-based, Helicobacter pylori
Experimental: H. pylori killing kinetics at various pHs. The killing kinetics of polypeptides were measured against H. pylori by counting the colony forming units (CFU) of alive bacteria with agar plating. The polypeptides at various concentrations were dissolved in the Tris-HC buffer at various pHs (pH 7.4, 4.0, 3.0). H. pylori were then collected and dispersed in the BB medium supplied with fresh urea (10 mM) and 10% FBS at different pHs (pH 7.4, 4.0, 3.0). The optical density at 600 nm of the bacteria were fixed at 0.1. The bacteria were then incubated with the polypeptides solution at corresponding pH in the incubator supplied with 10% CO2 at 37° C. Samples were taken for a series of ten-fold dilutions, and plated out in BB agar plates with 10% FBS and vancomycin (pH 7.4) after 1 h incubation. The plates were incubated for 72 h in the incubator and the bacteria were counted for CFU. Bacteria incubated with Tris-HCl buffer only at corresponding pH were served as 100% survival. Survival rate (%)=CFU of bacteria treated with polypeptides/CFU of bacteria treated with buffer×100%. The killing kinetics of antibiotics (OAC, omeprazole, amoxicillin, clarithromycin) against H. pylori were determined with a similar procedure. The antibiotics at various concentrations were dissolved in the Tris-HCl buffer at pH 7.4, or 3.0, and were then incubated with H. pylori in BB medium supplied with fresh urea (10 mM) and 10% FBS at corresponding pH in the incubator. After 1 h incubation, the bacteria were collected by centrifuge at 10,000 rcf for 5 min and washed with fresh BB medium. Samples were then taken for a series of ten-fold dilutions, and plated out in BB agar plates with 10% FBS and vancomycin. The plates were incubated for 72 h in the incubator and the bacteria were counted for CFU.

H. pylori SS1 [2] = assay: Anti-H. pylori efficacy in vivo (infected C57BL/6J mice); parameters: species or system Helicobacter pylori; details: oral gavage once daily for 3 d, 2.6 μmol/kg
Experimental: Anti-H. pylori efficacy in vivo. […] For triple therapy, mice were first administered omeprazole (a proton pump inhibitor) through oral gavage at a dose of 400 μmol/kg, followed by a lag time of 30 min before administration of amoxicillin (68.0 μmol/kg) and clarithromycin (19.1 μmol/kg). PL2 and PDL2 in 5% (vol/vol) DMSO (both at 2.6 μmol/kg) were administered through oral gavage once daily for a consecutive 3 d. Water solution with 5% DMSO was served as negative control group. Forty-eight hours after the last administration, mice were killed and the stomach was removed from the abdominal cavity. The stomach was cut along the greater curvature, and the gastric content was removed and rinsed with PBS. The stomach sections were used for assessment of bacterial colonization. For bacterial colonization, a gastric tissue section was suspended in 1 mL PBS and homogenized for H. pylori recovery. The homogenate was serially diluted and spotted onto Columbia agar plate containing vancomycin (20 μg/mL), amphotericin (2 μg/mL), bacitracin (30 μg/mL) and nalidixic acid (10 μg/mL). The plates were then incubated at 37° C. under microaerobic conditions for 5 d, and bacterial colonies were enumerated and adjusted for dilutions.

E. coli DH5α = assay: Minimal inhibition concentration (MIC), E. coli DH5α; type: cell-based, Escherichia coli; details: pH 7.4
Experimental: Minimal inhibition concentration (MIC). Gram-negative bacteria, DH5α and MG1655 (E. coli) were grown in LB medium at 37° C. For determination of the MIC, polypeptides were dissolved in media using serial dilutions from a stock solution. Into each well of a 96-well plate was added 200 μL of each concentration and 2 μL of bacteria (1×10^8 CFU (colony forming units)) in medium. The plate was incubated at 37° C. The optical density readings of microorganism solutions were measured after 24 h incubation. The MIC was considered as the lowest concentration of peptide where no visual growth of bacteria was detected.

[3] = system: clinically isolated H. pylori strains, including clarithromycin-resistant J99A-7, J99A-11, J99C-8, and J99D-1; assay: Bactericidal activity against clinically isolated H. pylori strains; type: cell-based, Helicobacter pylori; details: pH 3.0, 1 h incubation, 4.4 μM
Experimental: FIG. 3. HCT-AMPs effectively kill clinically isolated drug resistant H. pylori. (A) The bactericidal activity of PL2 against clinically isolated H. pylori strains. PL2, dissolved in the Tris-HCl buffer (pH 3.0), were incubated with clinically isolated strains in BB medium supplied with fresh urea, FBS and vancomycin (pH 3.0) for 1 h. The final concentration of PL2 was 4.4 μM. (B) The antibacterial activity of triple therapy against J99A-11 at pH 7.4 or 3.0. Concentrations of omeprazole, amoxicillin, and clarithromycin in OAC1 are 20.0 μM, 6.8 μM, and 1.9 μM, respectively; in OAC2 are 40.0 μM, 13.6 μM, and 3.8 μM, respectively; in OAC3 are 80.0 μM, 27.2 μM, and 7.6 μM, respectively (bars, left to right). (C) The antibacterial activity of omeprazole (0) and a combination of amoxicillin and clarithromycin (AC) against J99A-11 at pH 3.0. O1, O2, O3 represents the concentration of omeprazole at 20.0 μM, 40.0 μM, and 80.0 μM, respectively. AC1, AC2, AC3 represents the concentration of amoxicillin and clarithromycin at 6.8 μM and 1.9 μM, 13.6 μM and 3.8 μM, 27.2 μM and 7.6 μM, respectively.
H. pylori killing kinetics at various pHs. The killing kinetics of polypeptides were measured against H. pylori by counting the colony forming units (CFU) of alive bacteria with agar plating. […] The plates were incubated for 72 h in the incubator and the bacteria were counted for CFU. […]

## (PGA)18-r-(PHLG-MHH)20 [PL2]
H. pylori SS1 [1]; pH 3.0, 1 h incubation
  bactericidal activity against SS1: higher bactericidal activity
H. pylori SS1 [1]; pH 4.0, 1 h incubation
  bactericidal activity against SS1: notable bacteria killing
H. pylori SS1 [1]; pH 7.4, 1 h incubation
  bactericidal activity against SS1: no bactericidal activity
H. pylori SS1 [2]
  decrease of bacterial burden in the stomach as compared with the control group: ~100 times
E. coli DH5α
  minimal inhibitory concentration (MIC): higher than 70 μM
[3]
  bacterial strains killed: over 90%
